Results on one compound are retold here after patent publication US7271198B2, “Method of treating autoimmune diseases” (Wake Forest University, priority 2000, dated 2007).

Assay [1] relates to acetylated H3 and H4 histones. Kind of assay: Western immunoblot of acetylated H3 and H4 histones in SLE PBMCs. The format is cell-based, human. The note with it: 1000 ng/ml TSA or 20 μM SAHA, 18 hr. As to the method: The effect of TSA and SAHA was examined to determine if HDIs induce accumulation of acetylated histones in SLE PBMCs on the level of histone acetylation in SLE PBMCs. Following culture of PBMCs in the presence of vehicle, 1000 ng/ml TSA or 20 μM SAHA for 18 hr, histones were isolated.
(In general: A western blot detects proteins with antibodies after separation by electrophoresis.)

Assay [2] relates to IL-10 protein. Nature of the assay: IL-10 protein secretion by MRL/lpr splenocytes. The class given is cell-based, mouse. The note with it: MRL/lpr splenocytes stimulated by LPS, Con A, or LPS+IFN-γ, 72 hr. An excerpt:
To determine the effect of TSA and SAHA on IL-10 protein secretion, MRL/lpr splenocytes were stimulated with Con A, LPS, or LPS+IFN-γ for 72 hr in the absence or presence of TSA or SAHA. As shown in the FIG. 11D, splenocytes stimulated with Con A, LPS, or LPS+IFN-γ secreted a mean (±SEM) of 31.8±4.5, 32.3±1.9, and 34.8±4.9 pg/ml, respectively, of IL-10 protein.

In assay [3] the test system is IL-12 p35 and p40 transcripts. Kind of assay: IL-12 p35 and p40 transcripts in MRL/lpr splenocytes. The class given is cell-based, mouse. As to the method:
In this study, the question of whether TSA down-regulates transcription of both IL-12 p35 and p40 subunit mRNA was investigated. […] Splenocytes were stimulated with LPS and IFN-γ for 6 or 18 hr. […] When splenocytes were preincubated with TSA or SAHA for 18 hr and then stimulated with LPS and IFN-γ IL-12 p35 and p40 transcripts were undetectable (FIGS. 9B–D).

For assay [4], the system named is IFN-γ protein. Kind of assay: IFN-γ protein secretion by MRL/lpr splenocytes. The class given is cell-based, mouse. The following applies: Con A-stimulated splenocytes from younger MRL/lpr mice, 72 hr; p=0.004. An excerpt: The marked inhibition of IFN-γ transcript by these inhibitors prompted us to quantify IFN-γ protein secretion in splenocyte culture supernatants. Over 72 hr, Con A, but not LPS, stimulated splenocytes from younger MRL/lpr mice to secrete a mean (±SEM) 1,563.2±88.3 pg/ml of IFN-γ (FIG. 8D). […] Thus, inhibition of IFN-γ transcription by TSA and SAHA blocks secretion of IFN-γ protein by splenocytes.

For assay [5], the system named is TGF-β1 mRNA. Kind of assay: PCR of TGF-β1 mRNA in SLE and control T cells / PBMCs. The format is cell-based, human. As to the method: Gene expression of TGF-β1 was tested to determine if the gene expression is suppressed by deacetylation of histones in SLE. In this determination, SLE PBMCs or isolated T cells were treated with the histone deacetylase inhibitors (HDIs), TSA or SAHA, for 18hr. […] Subsequently, semi-quantitative PCR was performed to determine the amounts of […] transcripts in SLE and control T cells treated with vehicle or TSA (1000 ng/ml). […] There is no change in GAPDH transcript in normal and SLE T cells after treatment of HDIs. Increased TGF-β1 transcript was associated with a subsequent increase in TGF-β1 protein secretion by SLE PBMCs. When compared to vehicle treated PBMCs, total TGF-β1 protein in culture supernatants from SLE PBMCs increased by approximately 30%. In contrast, there was no increase in total TGF-β1 secretion in TSA treated cells in normal healthy controls. Similar results may be obtained by SAHA.

For assay [6], the system named is acetylated H3 and H4 histones. Kind of assay: Immunoblot of acetylated H3 and H4 histones in MRL/lpr splenocytes. The format is cell-based, mouse. The following applies: 18 hr exposure. An excerpt:
One mechanism by which HDIs suppress transcription of cytokine genes in MRL/lpr splenocytes may be by increasing accumulation of acetylated histones which may result in chromatin remodeling. The accumulation of acetylated histones H3 and H4 in HDI-treated splenocytes was quantified to test this hypothesis. FIG. 12 is an immunoblot analysis of the acetylation levels of H3 and H4 histones.

Assay [7] relates to IL-10 mRNA. Kind of assay: IL-10 mRNA in MRL/lpr splenocytes. The class given is cell-based, mouse. As to the method: In investigating whether TSA down-regulates IL-10 mRNA, MRL/lpr splenocytes were treated with increasing concentrations of TSA. The heightened, constitutive expression of IL-10 mRNA confirms previous findings (FIGS. 11A & 11B, lane 1). […] To address whether TSA and SAHA down-regulate LPS- and IFN-γ induced IL-10 transcript, splenocytes from 10-wk old MRL/lpr mice were treated in the absence or presence of TSA or SAHA for 18 hr before LPS and IFN-γ stimulation for 6 or 18 hr.

The test system of assay [8] is IL-10 mRNA. Kind of assay: RT-PCR of IL-10 transcript in SLE T cells. The class given is cell-based, human. As to the method:
T cells were cultured in the absence or presence of increasing concentrations of TSA for 18 hr in 5% CO2 at 37° C. RNA was isolated, cDNAs were prepared, and RT-PCR was performed as previously detailed (D. Laxminarayana, et al., J. Clin. Invest. 92, 2207 (1993)). The primers used were: […]
The reaction mixtures were subjected to 30 cycles of denaturation (94° C., 1 min) and annealing for 1 min at 53° C. (CD154), […] (GAPDH) and 55° C. (IL-10 and IFN-γ). Extension was for 2 min at 72° C. with a final extension of 7 min at 72° C. using a DNA thermal cycler (Perkin-Elmer).
To determine whether TSA could down-regulate IL-10, a dose-response analysis was performed. […] However, when SLE T cells were cultured in the presence of TSA for 18 hr, no detectable IL-10 transcripts were identified (FIG. 2C, lanes 3, 6, 9). When IL-10 transcripts from all eight SLE subjects were quantified relative to GAPDH transcripts, TSA inhibited expression of IL-10 mRNA by 71% (FIG. 2D; P=0.029). […] IL-10 and IFN-γ protein production were quantified by ELISA (R & D Systems, Minneapolis, Minn.). […] Thus, like CD154, TSA was able to block expression of IL-10 transcript, abolishing IL-10 production by SLE T cells.

In the case of `CC(/C=C/C(=O)NO)=C\[C@@H](C)C(=O)c1ccc(N(C)C)cc1` [TSA, Trichostatin A], the “accumulation of acetylated H3 and H4 histones” value in assay [1] is given as “induced the accumulation”; in assay [6] it was “marked increase”. Also, the IL-10 protein secretion result in assay [2] is “no detectable IL-10 secretion”. In assay [3] (splenocytes from 10-wk old MRL/lpr mice preincubated 18 hr, stimulated 6 or 18 hr), the “LPS and IFN-γ induced IL-12 p35 and p40 transcripts” value is listed as “undetectable”. Moreover, the “TSA concentration that completely suppressed constitutive IL-12 p35 and p40 transcripts” value in assay [3] (splenocytes from 24-wk MRL/lpr mice) is reported as “above 100 ng/ml”. Further, in assay [4], the IFN-γ protein secretion entry is reported as “did not secrete detectable levels”. Further, the “increase in TGF-β1 transcript” value in assay [5] (SLE PBMCs exposed to TSA and SAHA (summary statement)) is “eight-fold”. The “induction of TGF-β1 mRNA compared to vehicle treated cells” value in assay [5] (SLE T cells, 1000 ng/ml TSA, 18 hr, real time PCR) is recorded as 8 fold. In addition, the “TGF-β1 mRNA levels, semi-quantitative PCR” value in assay [5] (SLE T cells, TSA 1000 ng/ml) is listed as “increased”. Besides, the “TGF-β1 mRNA change” value in assay [5] (SLE T cells, TSA concentrations to 500 ng/ml) is “modest increase”. The “TSA dose that down-regulated IL-10 mRNA” value in assay [7] (MRL/lpr splenocytes, constitutive expression) turned out to be 300 ng/mL. Also, the “LPS- and IFN-γ induced IL-10 mRNA” value in assay [7] (splenocytes from 10-wk old MRL/lpr mice pretreated 18 hr, stimulated 6 or 18 hr) is on record as “no detectable IL-10 mRNA”. Besides, the “TSA concentration at which no detectable IL-10 mRNA was identified” value in assay [8] (SLE T cells, dose-response, RT-PCR) was 700 to 800 ng/mL. Further, the “inhibition of expression of IL-10 mRNA” value in assay [8] (eight SLE subjects, TSA 1000 ng/ml 18 hr, relative to GAPDH, P=0.029) was 71%.
